Test results published in patent publication US12612412B2, “Antiviral heterocyclic compounds” (Enanta Pharmaceuticals, Inc., priority 2021, dated 2026).

What was measured:
[1] = tested on: genotype A, "Long" strain RSV; test: RSV-A assay (CPE protection in Hep-2 cells, ATPlite readout); assay type: cell-based, Human respiratory syncytial virus (HRSV); conditions: human respiratory syncytial virus, RSV-A Long strain, MOI 0.1, CPE protection, read-out: Human RSV-A (“Long”) EC50
Method in brief: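 Hep-2, 8,000 cells/well, MOI 0.1 (PFU- or TCID50-based); 2-fold compound series, duplicates; 5 d incubation; ATPlite luminescence readout; EC50.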

[2] = tested on: HMPV clinical isolate TN/1501/A1; test: HMPV antiviral assay Method-B (clinical isolate TN/1501/A1 in LLC-MK2 cells, ATP-Lite readout); assay type: cell-based, Human metapneumovirus (HMPV); conditions: human metapneumovirus, LLC-MK2, 144 h, hMPV WT1501 (clinical isolate TN/1501/A1), 6 days
Method in brief: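 LLC-MK2 cells infected in suspension with TN/1501/A1 at MOI 0.014 in serum-free medium with 2 μg/mL TPCK-trypsin (final), incubated 6 days at 37° C. Compounds tested in duplicate, 10-point 3-fold dilutions from 10 μM. Cell health read by ATP-Lite luminescence, normalised to virus-only and cells-only controls; EC50 by four-parameter logistic fit.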

| EC50 [1] | EC50 [2] | SMILES |
| --- | --- | --- |
| < 200 nM | < 500 nM | C[C@]1(C(N)=O)COc2c1cc([C@@](O)(CNC(=O)c1cc(Cl)c3nn(C4(F)CC4)cc3c1)C1CC1)nc2-c1ccc2c(c1)OC(F)(F)O2 [Example 849] |
| < 200 nM | > 500 nM | COc1cc(C(=O)NC[C@](O)(c2nc(-c3ccc(F)cc3)c3c(c2F)[C@](C)(C(N)=O)CO3)C(F)(F)F)cc2cn(C3CC3)nc12 [Example 850] |
| < 200 nM | < 500 nM | COc1cc(C(=O)NC[C@](O)(c2nc(-c3ccc(F)cc3)c3c(c2F)[C@@](C)(C(N)=O)CO3)C(F)(F)F)cc2cn(C3CC3)nc12 [Example 851] |
| < 200 nM | > 500 nM | COc1cc(C(=O)NC[C@](O)(c2nc(-c3ccc(F)cc3)c3c(c2F)[C@](C)(C(N)=O)CO3)C(F)(F)F)cc2cn(C(F)F)nc12 [Example 852] |
| < 200 nM | < 500 nM | COc1cc(C(=O)NC[C@](O)(c2nc(-c3ccc(F)cc3)c3c(c2F)[C@@](C)(C(N)=O)CO3)C(F)(F)F)cc2cn(C(F)F)nc12 [Example 853] |
| > 200 nM | > 500 nM | COc1cc(C(=O)NC[C@](O)(c2nc(-c3ccc(F)cc3)c3c(c2F)[C@](C)(C(N)=O)CO3)C(F)(F)F)cc2cc(Cl)c(C)nc12 [Example 854] |
| < 200 nM | < 500 nM | COc1cc(C(=O)NC[C@](O)(c2nc(-c3ccc(F)cc3)c3c(c2F)[C@@](C)(C(N)=O)CO3)C(F)(F)F)cc2cc(Cl)c(C)nc12 [Example 855] |
| < 200 nM | < 500 nM | C[C@]1(C(N)=O)COc2c1cc([C@@](O)(CNC(=O)c1cc(Cl)c3nn(C(F)F)cc3c1)C1CC1)nc2-c1ccc2c(c1)OC(F)(F)O2 [Example 856] |
| < 200 nM | < 500 nM | COc1cc(C(=O)NC[C@](O)(c2nc(-c3ccc4c(c3)OC(F)(F)O4)c3c(c2F)[C@@](C)(C(N)=O)CO3)C2CC2)cc2cn(C3CC3)nc12 [Example 857] |
| < 200 nM | < 500 nM | C[C@]1(C(N)=O)COc2c(-c3ccc4c(c3)OC(F)(F)O4)nc([C@@](O)(CNC(=O)c3cc(Cl)c4nn(C5CC5)cc4c3)C3CC3)c(F)c21 [Example 858] |
| < 200 nM | < 500 nM | COc1cc(C(=O)NC[C@](O)(c2nc(-c3ccc4c(c3)OC(F)(F)O4)c3c(c2F)[C@@](C)(C(N)=O)CO3)C2CC2)cc2cn(C3(F)CC3)nc12 [Example 859] |
| < 200 nM | < 500 nM | COc1cc(C(=O)NC[C@](O)(c2nc(-c3ccc4c(c3)OC(F)(F)O4)c3c(c2F)[C@@](C)(C(N)=O)CO3)C2CC2)cc2cn(C(F)F)nc12 [Example 860] |
| < 200 nM | < 500 nM | COc1cc(C(=O)NC[C@](O)(c2nc(-c3ccc4c(c3)OC(F)(F)O4)c3c(c2F)[C@@](C)(C(N)=O)CO3)C2CC2)cc2cc(Cl)c(C)nc12 [Example 861] |
| < 200 nM | < 500 nM | COc1cc(C(=O)NC[C@](O)(c2nc(-c3cc(Cl)c(F)cc3F)c3c(c2F)[C@@](C)(C(N)=O)CO3)C2CC2)cc2cn(C3CC3)nc12 [Example 862] |
| < 200 nM | < 500 nM | COc1cc(C(=O)NC[C@](O)(c2cc3c(c(-c4ccc(F)c(C(F)(F)F)c4)n2)OC[C@]3(C)C(N)=O)C2CC2)cc2cn(C3CC3)nc12 [Example 871] |
| < 200 nM | < 500 nM | COc1cc(C(=O)NC[C@](O)(c2cc3c(c(-c4ccc(F)cc4Cl)n2)OC[C@]3(C)C(N)=O)C2CC2)cc2cn(C3CC3)nc12 [Example 872] |
| < 200 nM | < 500 nM | COc1cc(C(=O)NC[C@](O)(c2cc3c(c(-c4ccc(Cl)cc4F)n2)OC[C@]3(C)C(N)=O)C2CC2)cc2cn(C3CC3)nc12 [Example 873] |
| > 200 nM | > 500 nM | COc1cc(C(=O)NC[C@](O)(c2cc3c(c(-c4ccc(F)cc4)n2)OC[C@]3(C)C(N)=O)C(F)(F)F)cc2nn(C3CC3)cc12 [Example 874] |
| > 200 nM | > 500 nM | COc1cc(C(=O)NC[C@](O)(c2cc3c(c(-c4ccc(F)cc4)n2)OC[C@]3(C)C(N)=O)C(F)(F)F)cc2c(=O)n(C3CC3)[nH]c12 [Example 876] |
| < 200 nM | < 500 nM | C[C@]1(C(N)=O)COc2c1cc([C@@](O)(CNC(=O)c1cc(OCC3CC3)c3nn(C4(F)CC4)cc3c1)C(F)(F)F)nc2-c1ccc(F)cc1 [Example 877] |
| < 200 nM | > 500 nM | C[C@]1(C(N)=O)COc2c1cc([C@@](O)(CNC(=O)c1cc(OCCF)c3nn(C4(F)CC4)cc3c1)C(F)(F)F)nc2-c1ccc(F)cc1 [Example 878] |
| < 200 nM | > 500 nM | Cc1nc2c(Cl)cc(C(=O)NC[C@](O)(c3cc4c(c(-c5ccc(F)cc5)n3)OC[C@]4(C)C(N)=O)C(F)(F)F)cc2cc1Cl [Example 883] |
| < 200 nM | > 500 nM | Cc1nc2c(Cl)cc(C(=O)NC[C@](O)(c3cc4c(c(-c5ccc(F)c(Cl)c5)n3)OC[C@]4(C)C(N)=O)C(F)(F)F)cc2cc1Cl [Example 884] |
| < 200 nM | < 500 nM | Cc1nc2c(OC3CC3)cc(C(=O)NC[C@](O)(c3cc4c(c(-c5ccc(F)cc5)n3)OC[C@]4(C)C(N)=O)C(F)(F)F)cc2cc1Cl [Example 885] |
| < 200 nM | < 500 nM | Cc1nc2c(OC3CC3)cc(C(=O)NC[C@](O)(c3cc4c(c(-c5ccc(F)c(Cl)c5)n3)OC[C@]4(C)C(N)=O)C(F)(F)F)cc2cc1Cl [Example 886] |
| < 200 nM | > 500 nM | Cc1onc2ccc(C(=O)NC[C@](O)(c3cc4c(c(-c5ccc(F)cc5)n3)OC[C@]4(C)C(N)=O)C(F)(F)F)cc12 [Example 887] |
| < 200 nM | > 500 nM | COc1cc(C(=O)NC[C@](O)(c2cc3c(c(-c4ccc(F)cc4)n2)OC[C@]3(C)C(N)=O)C(F)(F)F)cc2c(C)onc12 [Example 888] |

Further lines, the compound ahead of its results:

| SMILES | EC50 [1] | EC50 [2] |
| --- | --- | --- |
| C[C@]1(C(N)=O)COc2c1cc([C@@](O)(CNC(=O)c1ccc3nn(C4CC4)cc3c1)C1CC1)nc2-c1ccc2c(c1)OC(F)(F)O2 [Example 831] | < 200 nM | < 500 nM |
| C[C@]1(C(N)=O)COc2c1cc([C@@](O)(CNC(=O)c1ccc3nn(C4(F)CC4)cc3c1)C(F)(F)F)nc2-c1ccc(F)cc1 [Example 832] | < 200 nM | > 500 nM |
| C[C@]1(C(N)=O)COc2c1cc([C@@](O)(CNC(=O)c1cc(F)c3nn(C4(F)CC4)cc3c1)C(F)(F)F)nc2-c1ccc(F)cc1 [Example 833] | < 200 nM | > 500 nM |
| C[C@]1(C(N)=O)COc2c1cc([C@@](O)(CNC(=O)c1cc(Cl)c3nn(C4(F)CC4)cc3c1)C(F)(F)F)nc2-c1ccc(F)cc1 [Example 834] | < 200 nM | < 500 nM |
| COc1cc(C(=O)NC[C@](O)(c2cc3c(c(-c4ccc5c(c4)OC(F)(F)O5)n2)OC[C@]3(C)C(N)=O)C2CC2)cc2cn(C3(F)CC3)nc12 [Example 835] | < 200 nM | < 500 nM |
| COc1cc(C(=O)NC[C@](O)(c2cc3c(c(-c4ccc(F)c(Cl)c4)n2)OC[C@]3(C)C(N)=O)C2CC2)cc2cn(C3(F)CC3)nc12 [Example 836] | < 200 nM | < 500 nM |
| COc1cc(C(=O)NC[C@](O)(c2cc3c(c(-c4ccc5c(c4)OC(F)(F)O5)n2)OC[C@]3(C)C(N)=O)C(F)(F)F)cc2cn(C3(F)CC3)nc12 [Example 837] | < 200 nM | < 500 nM |
| COc1cc(C(=O)NC[C@](O)(c2cc3c(c(-c4ccc5c(c4)OC(F)(F)O5)n2)OC[C@]3(C)C(N)=O)C2CC2)cc2cn(C3(Cl)CC3)nc12 [Example 838] | < 200 nM | < 500 nM |
| COc1cc(C(=O)NC[C@](O)(c2cc3c(c(-c4cc(Cl)ccc4F)n2)OC[C@]3(C)C(N)=O)C2CC2)cc2cn(C3(F)CC3)nc12 [Example 839] | < 200 nM | < 500 nM |
| COc1cc(C(=O)NC[C@](O)(c2cc3c(c(-c4ccc(Cl)cc4F)n2)OC[C@]3(C)C(N)=O)C2CC2)cc2cn(C3(F)CC3)nc12 [Example 840] | < 200 nM | < 500 nM |
| COc1cc(C(=O)NC[C@](O)(c2cc3c(c(-c4ccc(F)c(Cl)c4)n2)OC[C@]3(C)C(N)=O)C2CC2)cc2cn(C3(Cl)CC3)nc12 [Example 841] | < 200 nM | < 500 nM |
| COc1cc(C(=O)NC[C@](O)(c2cc3c(c(-c4cc(Cl)ccc4F)n2)OC[C@]3(C)C(N)=O)C2CC2)cc2cn(C3(Cl)CC3)nc12 [Example 842] | < 200 nM | < 500 nM |
| COc1cc(C(=O)NC[C@](O)(c2cc3c(c(-c4ccc(Cl)cc4F)n2)OC[C@]3(C)C(N)=O)C2CC2)cc2cn(C3(Cl)CC3)nc12 [Example 843] | < 200 nM | < 500 nM |
| COc1cc(C(=O)NC[C@](O)(c2cc3c(c(-c4ccc(F)cc4Cl)n2)OC[C@]3(C)C(N)=O)C2CC2)cc2cn(C3(Cl)CC3)nc12 [Example 844] | < 200 nM | < 500 nM |
| COc1cc(C(=O)NC[C@](O)(c2cc3c(c(-c4ccc(F)c(C(F)(F)F)c4)n2)OC[C@]3(C)C(N)=O)C2CC2)cc2cn(C3(Cl)CC3)nc12 [Example 845] | < 200 nM | < 500 nM |
| C[C@]1(C(N)=O)COc2c1cc([C@@](O)(CNC(=O)c1cc(OC3CC3)c3nn(C4(F)CC4)cc3c1)C1CC1)nc2-c1ccc2c(c1)OC(F)(F)O2 [Example 846] | < 200 nM | < 500 nM |
| C[C@]1(C(N)=O)COc2c1cc([C@@](O)(CNC(=O)c1cc(OC3CC3)c3nn(C(F)F)cc3c1)C1CC1)nc2-c1ccc2c(c1)OC(F)(F)O2 [Example 847] | < 200 nM | < 500 nM |
| C[C@]1(C(N)=O)COc2c1cc([C@@](O)(CNC(=O)c1cc(F)c3nn(C4(F)CC4)cc3c1)C1CC1)nc2-c1ccc2c(c1)OC(F)(F)O2 [Example 848] | < 200 nM | < 500 nM |
